Patent US7223400B2, “Method to prepare compositions comprising yeast treated with electromagnetic energy” (Ultra Biotech Limited, priority 2003, dated 2007)

Columns and labels:
[1] = tested on: stomach cancer cells (cell line from a DMH-induced Wistar rat stomach cancer); assay: Wistar rat model of transplanted stomach cancer, growth of the tumor; format: in vivo, Wistar rats; conditions: 22nd day from tumor inoculation; 21 consecutive days; AY/NY 0.8 ml oral once per day, ADM 10^5 units per kg i.v. per day
Source text: The growth of the tumor in the rats was studied.
Numerous animal studies have reported the use of Wistar rats in the study of treating stomach cancer. 1,2-dimethylhydrazine (DMH) is a well-known effective trigger of stomach cancer in rats. Accordingly, this experiment used DMH in designing Wistar rat model of human stomach cancer. Detailed description of the use of 1,2-dimethylhydrazine to induce stomach cancer can be found in Watanabe H. et al., 1999, Jpn J Cancer Res. 90(11):1207–11, which is incorporated herein by reference in its entirety.
The animals used in the experiments were Wistar rats (obtainable from the Chinese Academy of Military Medical Sciences, Beijing, China). The stomach cancer cell line (obtainable from the First Military Medical University of China, Guangzhou, China) was generated in 1991 from a Wistar rat stomach cancer which was induced by subcutaneous injection of DMH. The rats were injected subcutaneously with 2.5×10^6 stomach cancer cells per animal.
In group AY, the rats received 0.8 ml of the biological composition once per day. In group NY, the rats received 0.8 ml of the untreated yeast cells once per day. In group ADM, the rats were injected intravenously with 10^5 units of doxorubicin (adriamycin, ADM) per kg body weight per day. In group CK1, the rats received 0.8 ml of physiological saline once per day. […]

[2] = tested on: stomach cancer cells (cell line from a DMH-induced Wistar rat stomach cancer); assay: Wistar rat model of transplanted stomach cancer, survival time; format: in vivo, Wistar rats; conditions: for Number of live animals remaining in the groups after 21 days of treatment: 30 rats per group
Procedure: In group 2ADM, the rats were injected intravenously with 1.5×10^5 units of doxorubicin (adriamycin, ADM) per kg body weight per day.

[3] = tested on: stomach cancer cell line S784; assay: TA2 mouse model of stomach cancer, growth of tumors; format: in vivo, TA2 mice; conditions: 31st day from tumor inoculation; 30 consecutive days; AY/NY 0.3 ml oral once per day, ADM 10^5 units per kg i.v. per day
Source text: The growth of tumors in the mice was studied.
Numerous animal studies have reported the use of murine models in the study of treating stomach cancer. Methylcholanthrene (MC) is a well-known effective trigger of stomach cancer in mice. Accordingly, this experiment used MC in designing TA2 mouse model of human stomach cancer. Detailed description of the use of methylcholanthrene to induce stomach cancer can be found in Wang X. H. et al., 1984, Chin Med J (Engl) 97(3):215–22, which is incorporated herein by reference in its entirety.
The animals used for the experiments were TA2 mice, 6 to 8 weeks old (obtainable from the Second Military Medical University, Shanghai, China). Both male and females with an average weight of about 18 to 20 gram were used. The stomach cancer cell line S784 (obtainable from MC-treated TA2 mouse provided by the Tianjian Medical University, China) in a suspension containing about 1.2×10^7 viable tumor cells (about 0.2 ml cell culture) was injected subcutaneously into the animals.
In group ADM, the mice were injected intravenously with 10^5 units of doxorubicin (adriamycin, ADM) per kg body weight per day.

[4] = tested on: stomach cancer cell line S784; assay: Mouse model of stomach cancer, survival time; format: in vivo, TA2 mice; conditions: for Number of live animals remaining in the groups after 30 days of treatment: 30 mice per group
Procedure: In group 2ADM, the mice were injected intravenously with 1.5×10^5 units of doxorubicin (adriamycin, ADM) per kg body weight per day.

[5] = 1 month after cessation of treatment
[6] = 2 months after cessation of treatment
[7] = 3 months after cessation of treatment
[8] = 4 months after cessation of treatment
[9] = 5 months after cessation of treatment
[10] = 6 months after cessation of treatment
[11] = rats that survived, observed over 6 months, 1.2 ml oral or ADM 1.5×10^5 units per kg i.v. per day, 21 days
[12] = mice that survived, observed over 6 months, 0.5 ml oral or ADM 1.5×10^5 units per kg i.v. per day

## COc1cccc2c1C(=O)c1c(O)c3c(c(O)c1C2=O)C[C@@](O)(C(=O)CO)C[C@@H]3O[C@H]1C[C@H](N)[C@H](O)[C@H](C)O1 [ADM, doxorubicin]
[1]
  mean weight of rats and standard deviation: 181.8 ± 12.8 g
  mean weight of tumor nodules and standard deviation: 446.4 ± 13.6 mg
[2]; 0 month after cessation of treatment, 1.2 ml oral or ADM 1.5×10^5 units per kg i.v. per day
  Number of live animals remaining in the groups after 21 days of treatment: 30
[2]; [5]
  Number of live animals remaining in the groups after 21 days of treatment: 30
[2]; 1.2 ml oral per day or ADM 1.5×10^5 units per kg per day, from injection of tumor cells
  survival of rats bearing stomach cancer cells: all died after four months
[2]; [6]
  Number of live animals remaining in the groups after 21 days of treatment: 30
[2]; [7]
  Number of live animals remaining in the groups after 21 days of treatment: 22
[2]; [8]
  Number of live animals remaining in the groups after 21 days of treatment: 17
[2]; [9]
  Number of live animals remaining in the groups after 21 days of treatment: 13
[2]; [10]
  Number of live animals remaining in the groups after 21 days of treatment: 0
[2]; [11]
  mean weight of rats and standard deviation: all animals dead
  mean weight of tumor nodules and standard deviation: all animals dead
[3]
  mean weight of mice and standard deviation: 19.8 ± 0.8 g
  mean weight of stomach and standard deviation: 621 ± 17 mg
  mean weight of tumor nodules and standard deviation: 346 ± 36 mg
[4]; 0 month after cessation of treatment, 0.5 ml oral or ADM 1.5×10^5 units per kg i.v. per day
  Number of live animals remaining in the groups after 30 days of treatment: 30
[4]; 0.5 ml oral per day or ADM 1.5×10^5 units per kg per day, from injection of tumor cells
  survival of mice bearing stomach cancer cells: all died after four months
[4]; [5]
  Number of live animals remaining in the groups after 30 days of treatment: 30
[4]; [6]
  Number of live animals remaining in the groups after 30 days of treatment: 27
[4]; [7]
  Number of live animals remaining in the groups after 30 days of treatment: 16
[4]; [8]
  Number of live animals remaining in the groups after 30 days of treatment: 7
[4]; [9]
  Number of live animals remaining in the groups after 30 days of treatment: 0
[4]; [10]
  Number of live animals remaining in the groups after 30 days of treatment: 0
[4]; [12]
  mean weight of mice and standard deviation: all animals dead
  mean weight of stomach and standard deviation: all animals dead
  mean weight of tumor nodules and standard deviation: all animals dead
